Results published in patent publication US20080269242A1, “Crystalline Salts of 7-[4-(4-Naphthalen-1-Yl-Piperazin-1-Yl)-Butoxy]-3,4-Dihydro-1H-[1,8]Naphthyridine-2-One” (priority 2005, published 2008).

Assays:
[1] = test system: spontaneous locomotor activity (SLMA); assay: Spontaneous locomotor activity (SLMA) in rats; assay type: in vivo, Male Sprague-Dawley rats; settings: rat; for SLMA, Mean centimeters traveled in 1 hour±SEM: 60-minute absorption period, recorded 1 hour, vehicle 4066±297
Source text: Effects of 7-[4-(4-naphthalen-1-yl-piperazin-1-yl)-butoxy]-3,4-dihydro-1H-[1,8]naphthyridin-2-one on spontaneous locomotors activity (SLMA) was investigated in an in vivo animal model, which is predictive of antipsychotic efficacy.
Method: Male Sprague-Dawley rats were used in studies where SLMA was quantified using an activity monitor in a sound-attenuated chamber. Rats were randomly assigned to various groups (including a vehicle control group). 7-[4-(4naphthalen-1-yl-piperazin-1-yl)-butoxy]-3,4-dihydro-1H-[1,8]naphthyridin-2-one at doses of 0.1 mg/kg, 0.3 mg/kg, 1 mg/kg, 3 mg/kg, and 10 mg/kg, or vehicle were administered orally. Following a 60-minute absorption period, each rat was placed into the test chamber, and SLMA was recorded for a 1-hour time-period. SLMA is expressed as centimeters traveled. Statistical analysis was performed using a one-way ANOVA followed by a post hoc Dunnett's test.

dopamine D2 receptor = dopamine D2 receptor (Homo sapiens, UniProt P14416); settings: background statement, compound of WO2005/019215; cited from earlier work
Sequence of dopamine D2 receptor (P14416 whole entry, species assumed): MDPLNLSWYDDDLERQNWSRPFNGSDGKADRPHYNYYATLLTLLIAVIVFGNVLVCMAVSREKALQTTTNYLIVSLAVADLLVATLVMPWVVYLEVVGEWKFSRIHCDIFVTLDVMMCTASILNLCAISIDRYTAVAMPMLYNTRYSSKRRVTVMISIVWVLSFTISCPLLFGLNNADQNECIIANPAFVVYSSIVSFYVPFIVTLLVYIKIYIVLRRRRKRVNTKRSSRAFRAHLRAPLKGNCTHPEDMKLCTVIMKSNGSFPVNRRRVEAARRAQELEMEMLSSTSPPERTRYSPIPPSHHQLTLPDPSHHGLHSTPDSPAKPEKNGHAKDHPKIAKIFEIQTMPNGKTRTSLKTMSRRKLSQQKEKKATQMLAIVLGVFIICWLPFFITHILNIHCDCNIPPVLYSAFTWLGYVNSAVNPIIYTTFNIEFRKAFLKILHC

D2 receptors = D2 receptors (Homo sapiens, UniProt P14416); settings: background statement, compound of WO2005/019215; cited from earlier work
Sequence of D2 receptors (P14416 whole entry, species assumed): as above

[2] = Solid-state stability study, open dish; assay type: physicochemical; settings: for solid-state stability (degradation): open dish, 6 month
[3] = Conversion of crystalline form on standing; assay type: physicochemical; settings: ambient temperatures

SMILES: O=C1CCc2ccc(OCCCCN3CCN(c4cccc5ccccc45)CC3)nc2N1 [7-[4-(4-naphthalen-1-yl-piperazin-1-yl)-butoxy]-3,4-dihydro-1H-[1,8]naphthyridin-2-one]
- SLMA, Mean centimeters traveled in 1 hour±SEM ([1]; 0.1 mg/kg orally, not statistically different from vehicle): 3998±133 centimeters
- SLMA, Mean centimeters traveled in 1 hour±SEM ([1]; 0.3 mg/kg orally, p<0.05 vs vehicle): 2510±185 centimeters
- SLMA, Mean centimeters traveled in 1 hour±SEM ([1]; 1 mg/kg orally, p<0.05 vs vehicle): 1977±173 centimeters
- SLMA, Mean centimeters traveled in 1 hour±SEM ([1]; 3 mg/kg orally, p<0.05 vs vehicle): 1742±206 centimeters
- SLMA, Mean centimeters traveled in 1 hour±SEM ([1]; 10 mg/kg orally, p<0.05 vs vehicle): 1068±208 centimeters
- effect on SLMA (in words) ([1]; oral, 0.1-10 mg/kg): dose-dependent reduction
- minimum effective dose (reduction of SLMA) ([1]; oral, estimated): 0.3 mg/kg
- binding to the dopamine D2 receptor (in words) (dopamine D2 receptor): binds
- activity at D2 receptors (in words) (D2 receptors): partial agonist

SMILES: O=C1CCc2ccc(OCCCCN3CCN(c4cccc5ccccc45)CC3)nc2N1.O=P(O)(O)O [Form A, 7-[4-(4-naphthalen-1-yl-piperazin-1-yl)-butoxy]-3,4-dihydro-1H-[1,8]naphthyridin-2-one mono-phosphate]
- solid-state stability (degradation) ([2]; 25° C./60% relative humidity): little or no degradation
- solid-state stability (degradation) ([2]; 30° C./70% relative humidity): little or no degradation
- solid-state stability (degradation) ([2]; 40° C./75% relative humidity): little or no degradation
- relative stability of crystalline forms ([2]; Form A compared with Form B): more stable than Form B

SMILES: O=C1CCc2ccc(OCCCCN3CCN(c4cccc5ccccc45)CC3)nc2N1.O=P(O)(O)O [Form B, 7-[4-(4-naphthalen-1-yl-piperazin-1-yl)-butoxy]-3,4-dihydro-1H-[1,8]naphthyridin-2-one mono-phosphate]
- form conversion on standing [3]: convert to Form A
